Legend:
PfKRS1 [1] = conditions: cited from earlier work
[2] = system: P. falciparum stage V gametocytes; experiment: P. falciparum stage V gametocytes; assay type: cell-based; conditions: Plasmodium falciparum
Experimental: Thi s is a modification of the previously reported method (13). Asexual P. falciparum paras i t es (NF54) from a cl one G 3 w ere g row n at 5% hemat ocri t i n O+ human ery t hrocy t es i n s erum-contai ni ng compl ete medi a (RPMI 1640, g entami ci n 0. 05 mg /ml , hy pox anthi ne 0. 05 mg/ml, HEPES 38.4 mM , sodium bicarbonate 0.2% [w/v], D-glucose 0.2% [w/v], sodium hydroxide 3.4 mM, 11.9% [w/v] heat-inactivated human serum [O+] and at 37 °C un de r l ow-ox y g en con di t i ons (3% O2, 5% C O2, and 92% N2) and a paras i temi a between 0. 5% and 3%. Ri ng-stage parasites were synchronized at 3%
paras i t aemi a (d-6) w i t h 5% (w /v ) D-Sorbi tol . On day −4, 45ml of compl ete medi a was added to the
cul ture fl as k to s tres s vi a hematocri t drop now at 2. 5%. The o n d-3 an d d-2 onl y 45 ml o f the medi a
was substituted for fres h medi a.

[3] = system: P. falciparum male/female gamete formation; experiment: P. falciparum male/female gamete formation; assay type: cell-based; conditions: Plasmodium falciparum
Experimental: Thi s i s bas ed on methods previ ousl y reported (14). Mature P. falciparum stage V gametocytes (NF54)
were incubated with test compound for 24 h at 3 7°C i n 384-well plates containing complete culture
medi um (RPMI 1640, 25 mM HEPES, 2 g/l D-glucose, 2 g/l sodium bicarbonate, 50 mg/l
Gametogenesis was triggered by dis pens i ng 10 µl ookinete medium (RPMI 1640, 25 mM HEPES, 2 g/l
D-glucose, 2 g/l sodium bicarbonate, 50 mg/l hy pox ant hi ne, 100 µM xanthurenic acid) also
contai ni ng 2. 7 µg/ml anti-Pfs25-Cy3 into each well and cooling the plate on a metal block at 4 °C fo r
4 mi n. Fi fteen s l ater male gametogenesis was recorded by b ri ghtfi el d i magi ng usi ng ti m e s 6 object i v e
and then the pl ate stored at 2 6 °C for a fu rther 24 h to allow female gametes to develop. Female
gamete formation was assessed by fluorescence m icroscopy using x6 objective to identify anti-Pfs25-
gentian violet negative and positive controls.
3.1 3 Act iv it y a gains t Cry pt os pori diu m h omi nis (CALIBR)
Thi s i s bas ed on methods previ ousl y reported (10).

[4] = Hepatocyte stability, human; assay type: in vitro ADME
Experimental: SUPPLEMENTARY INFORMATION where V (ml/mg protein) is the incubation volume/mg protein added (0.5) and microsomal protein yield is taken as being 52.5 mg protein per g liver. Verapami l (0. 5 µ M ) w as us ed as a pos i t i v e cont rol to confirm ac ceptable assay performance. Ex peri ments were performed us i ng a s i ngl e ti me-cours e […]
4.5 He pat ocy t e s t abilit y
Cryopreserved hepatocytes were used to take non-CYP mediated Phase I and Phase II enzymes into […]
than those determined using li v e r mi crosomes or other subcellular liver fractions and could be mo re predi ct i v e of a met abol i c rat e det ermi ned in vivo.
Cryopreserved mouse (batch MC539) and huma n (batch HU E50H) hepatocytes were supplied by ThermoFi sher Sci enti fi c, Pai sl ey, UK and Xenotech, LLC, respectively. Cryopreserved hepatocytes were rapidly thawed in a pre-heat ed w at er bat h at 37 °C before ad di ng to 50 ml of pre-warmed CHRM medi a (ThermoFi sher Sci enti fi c, Paisley, UK) and mi xed gentl y. […] […] 5 mi l li on v i abl e cel l s /ml i n s uppl emented W ME. Onl y s us pens i ons whi ch ac hi ev ed >80% pos t-thaw viability were us ed i n ex peri ment s . […]
DMSO and 0.25 million cells/ml. […]

PfKRS1 [5] = biological target: PfKRS1 (Plasmodium falciparum, UniProt Q8IDJ8); experiment: PfKRS1 hit discovery high-throughput screen (Kinase-Glo); assay type: biochemical; design: recombinant PfKRS1 (77–583 and 80–583); 6xHis (N); made in house; host or cells: E. coli Rosetta BL21(DE3), vector pAVA0421; conditions: single point 7.5 µM
PfKRS1 (Plasmodium falciparum, UniProt Q8IDJ8), sequence (Q8IDJ8 77-583): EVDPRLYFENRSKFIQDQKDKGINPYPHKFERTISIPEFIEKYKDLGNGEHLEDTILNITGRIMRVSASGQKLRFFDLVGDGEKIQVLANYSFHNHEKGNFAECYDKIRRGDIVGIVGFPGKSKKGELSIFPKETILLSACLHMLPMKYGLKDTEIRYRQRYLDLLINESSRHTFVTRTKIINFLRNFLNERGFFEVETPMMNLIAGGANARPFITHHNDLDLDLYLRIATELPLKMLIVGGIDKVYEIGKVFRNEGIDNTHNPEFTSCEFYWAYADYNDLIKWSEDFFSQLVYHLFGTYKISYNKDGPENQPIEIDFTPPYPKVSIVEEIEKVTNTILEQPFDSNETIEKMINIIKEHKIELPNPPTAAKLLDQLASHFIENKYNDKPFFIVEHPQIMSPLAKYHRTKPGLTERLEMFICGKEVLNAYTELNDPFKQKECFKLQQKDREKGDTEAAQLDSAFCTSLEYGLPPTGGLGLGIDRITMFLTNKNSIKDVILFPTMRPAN
Experimental: By using the luciferase ATP consumption (Kinase-Glo) assay platform with sub-Km substrate concentrations (thus biasing the assay toward identifying ATP-competitive inhibitors), the GlaxoSmithKline malaria actives set of ∼13,000 compounds (the Tres Cantos Antimalarial Set) ([19]) was screened against recombinant PfKRS1, leading to the discovery of a PfKRS1 inhibitor, compound 2 (Fig. 1). […] Compound 2 suffered from high metabolic instability (CLi > 50 mL⋅min^−1⋅g^−1 in mouse liver microsomes); however, in contrast to cladosporin 1, it was chemically tractable. […]
Assays were performed in 384-well format i n buffer (as des cri bed i n Tabl e S3), 60 µM lysine, and 75 nM PfKRS1. Compounds were initially screened at single point concentrations of 7.5 µM and hits were re peated three times. Plates were incubated for 180 mi ns at 37°C after a ddition of compounds. Reactions were terminated by the addi ti on of Ki nase-Glo® reagent and read on an E nVi si on pl ate reader (Perki nEl mer, W al tham, MA). […]
Us i ng the EnzChek as s ay pl atform the I C50 value for compound 5 was determined at saturating concentrati ons of both s ubs trates , 0. […] Assay ready plates containing different concent rations of compound 5 were prepa red usi ng an Ec ho® 5 50 acousti c di spenser (Labcyte Inc.). […]

In the case of `C[C@H]1CCC[C@H](C[C@H]2Cc3cc(O)cc(O)c3C(=O)O2)O1` [Compound 1, cladosporin, reference compound], the “selectivity for cytosolic PfKRS1 compared with HsKRS” value (PfKRS1 [1]) is given as over 100 fold.
With `O=C(NCC1(O)CCC(F)(F)CC1)c1cc(=O)c2cc(F)ccc2o1` [Compound 5] the EC50 [2] was 9.9 µM, the EC50 [3] was over 1 µM and the “Hepatocyte stability CLint” value [4] was 0.5 (mouse), <0.5 (human) mL⋅min^−1⋅g^−1.
In the case of `O=C(NCC1CCCCC1)c1cc(=O)c2ccccc2o1` [Compound 2], the “inhibition of PfKRS1 in high-throughput screen” value (PfKRS1 [5]) is reported as 71-91%.

— publication PMC6452685, “Lysyl-tRNA synthetase as a drug target in malaria and cryptosporidiosis” (Proceedings of the National Academy of Sciences of the …, 2019)
